# Measured values published in US20040132803A1, “Agent for the treatment of overactive bladder” (priority 2003, published 2004).
# Experiments:
# [1] = tested on: dd male mice; settings: mouse, in vivo, po, 7 days
# Protocol: The test compound was administered orally or intraperitoneally to 3 animals per group of dd male mice (body weight, 20±1 g). Minimum lethal dose (MLD) value was obtained by observing mortality on the 7th day after the administration.
# [2] = tested on: rats with hypertrophic bladder; assay: Inhibition of detrusor instability, cystometry in rats with partial urethra obstruction (hypertrophic bladder); type: in vivo, rat; settings: for micturition contraction, relative to before administration = 100 / pre-micturition contraction, relative to before administration = 100: rats with partial urethra obstruction
# Text: Partial urethra obstruction was induced in rats.
# [3] = tested on: delayed rectifier K^+ currents; assay: Delayed rectifier K^+ currents in Fast Blue-labeled capsaicin-sensitive bladder afferent neurons; type: cell-based, rat; settings: 1.0 × 10^−6 mol/L
# Protocol: Experiments were performed on adult female Sprague Dawley rats. First and second series of the experiments were performed, respectively, in unidentified DRG neurons and a specific population of DRG neurons innervating the urinary bladder. The population of DRG neurons that innervate the urinary bladder were labeled by retrograde axonal transport of the fluorescent dye, Fast Blue (4% w/v) (Polyloy, Gross Umstadt, Germany), injected into the wall of the bladder in halothane-anesthetized animals 7 days before the dissociation. The dye was injected with a 28 gauge needle at three to six sites on the dorsal surface of the organ (5-6 μL per site, total volume of 20-30 μL). Each injection site was washed with saline to minimize contamination of adjacent organs with the dye.
# Freshly dissociated neurons from DRG were prepared from halothane-anesthetized animals. […]
# Dye-labeled primary afferent neurons that innervate the urinary bladder were identified using an inverted phase-contrast microscope (Nikon, Tokyo, Japan) with fluorescent attachments (UV-1A filter; excitation wavelength, 365 nm). […] All recordings were made with an Axopatch-1D patch-clamp amplifier (Axon Instruments, Foster City, Calif.), and data were acquired and analyzed by PCLAMP software (Axon Instruments).
# In voltage-clamp recordings, outward K^+ currents and inward Na^+ currents were measured. […]
# [4] = tested on: DRG cells; assay: Current-clamp membrane potential in DRG cells; type: cell-based, rat; settings: for Membrane potential (mV): current clamp
# Protocol: Experiments were performed on adult female Sprague Dawley rats. A population of unidentified DRG cells and a population of DRG neurons that innervate the urinary bladder were labeled by retrograde axonal transport of the fluorescent dye, Fast Blue (4% w/v) (Polyloy, Gross Umstadt, Germany), injected into the wall of the bladder in halothane-anesthetized animals 7 days before the dissociation. The dye was injected with a 28 gauge needle at three to six sites on the dorsal surface of the organ (5-6 μL per site, total volume of 20-30 μL). Each injection site was washed with saline to minimize contamination of adjacent organs with the dye.
# Freshly dissociated neurons from DRG were prepared from halothane-anesthetized animals. L6 and S1 DRG were dissected from animals and then dissociated in a shaking bath for 25 minutes at 35° C. with 5 mL DMEM (Sigma) containing 0.3 mg/mL trypsin (Type 3, Sigma), 1 mg/mL collagenase (Type 1, Sigma), and 0.1 mg/mL deoxyribonuclease (Type 4, Sigma). Trypsin inhibitor (Type 2a, Sigma) was then added thereto to neutralize the activity of trypsin. Individual DRG cell bodies were isolated by trituration and then plated on a poly-L-lysine-coated 35 mm Petri dishes.
# Dye-labeled primary afferent neurons that innervate the urinary bladder were identified using an inverted phase-contrast microscope (Nikon, Tokyo, Japan) with fluorescent attachments (UV-1A filter; excitation wavelength, 365 nm). Gigaohm-seal whole-cell recordings were performed within 6-8 hours after cell dissociation at room temperature (20-22° C.) on each labeled neuron in a culture dish that usually contained three to seven labeled cells among a few hundred unlabeled neurons. The internal solution contained (in mmol/L): KCl 140, CaCl2 1, MgCl2 2, EGTA 11, HEPES 10, Mg-ATP 2, and Tris-GTP 0.4 adjusted to pH 7.4 with KOH. Patch electrodes had resistances of 1-4 M Ω when filled with the internal solution. Neurons were superfused at a flow rate of 1.5 mL/minutes with an external solution containing (in mmol/L): NaCl 150, KCl 5, CaCl2 2.5, MgCl2 1, HEPES 10, and D-glucose 10, adjusted to pH 7.4 with NaOH. All recordings were made with an Axopatch-1D patch-clamp amplifier (Axon Instruments, Foster City, Calif.), and data were acquired and analyzed by PCLAMP software (Axon Instruments).
# In current-clamp recordings, membrane potential of DRG cells were measured before and after compound applications. The membrane potentials were normalized to control (before addition of the compound).
# [5] = 0.001 mg/kg p.o., after 3 hours
# [6] = 0.001 mg/kg p.o., after 5 hours
smiles,measurement,setting,value
"C[C@](O)(C(=O)Nc1cccc2c1C(=O)c1sccc1CS2(=O)=O)C(F)(F)F [Compound 1, (S)-(+)-N-(5,5-dioxido-10-oxo-4,10-dihydrothieno[3,2-c][l]benzothiepin-9-yl)-3,3,3-trifluoro-2-hydroxy-2-methylpropanamide]",Minimum lethal dose (MLD),[1],"> 1,000 mg/kg"
same,"micturition contraction, relative to before administration = 100","[2]; 0.001 mg/kg p.o., after 1 hour",99.3 ± 2.3%
same,"pre-micturition contraction, relative to before administration = 100","[2]; 0.001 mg/kg p.o., after 1 hour",105.9 ± 7.8%
same,"micturition contraction, relative to before administration = 100",[2]; [5],101.5 ± 3.3%
same,"pre-micturition contraction, relative to before administration = 100",[2]; [5],100.3 ± 10.0%
same,"micturition contraction, relative to before administration = 100",[2]; [6],98.7 ± 5.2%
same,"pre-micturition contraction, relative to before administration = 100",[2]; [6],104.2 ± 10.2%
same,"micturition contraction, relative to before administration = 100","[2]; 0.01 mg/kg p.o., after 1 hour",99.6 ± 1.2%
same,"pre-micturition contraction, relative to before administration = 100","[2]; 0.01 mg/kg p.o., after 1 hour",59.5 ± 4.1 %
same,"micturition contraction, relative to before administration = 100","[2]; 0.01 mg/kg p.o., after 3 hours",92.6 ± 3.2%
same,"pre-micturition contraction, relative to before administration = 100","[2]; 0.01 mg/kg p.o., after 3 hours",69.5 ± 4.4 %
same,"micturition contraction, relative to before administration = 100","[2]; 0.01 mg/kg p.o., after 5 hours",90.1 ± 4.3%
same,"pre-micturition contraction, relative to before administration = 100","[2]; 0.01 mg/kg p.o., after 5 hours",67.8 ± 5.5 %
same,"micturition contraction, relative to before administration = 100","[2]; 0.1 mg/kg p.o., after 1 hour",106.2 ± 9.2%
same,"pre-micturition contraction, relative to before administration = 100","[2]; 0.1 mg/kg p.o., after 1 hour",55.8 ± 8.2 %
same,"micturition contraction, relative to before administration = 100","[2]; 0.1 mg/kg p.o., after 3 hours",105.2 ± 9.6%
same,"pre-micturition contraction, relative to before administration = 100","[2]; 0.1 mg/kg p.o., after 3 hours",66.2 ± 4.7 %
same,"micturition contraction, relative to before administration = 100","[2]; 0.1 mg/kg p.o., after 5 hours",100.1 ± 8.6%
same,"pre-micturition contraction, relative to before administration = 100","[2]; 0.1 mg/kg p.o., after 5 hours",69.2 ± 7.4 %
same,effect on micturition contraction,[2]; rats with hypertrophic bladder,had no influence
same,effect on pre-micturition contraction (detrusor instability),[2]; rats with hypertrophic bladder,inhibited
same,"Delayed rectifier HP: −40 mV, normalized to control",[3],1.10 ± 0.01
same,effect on membrane potential,[4],hyperpolarization
same,Membrane potential (mV),[4]; 1.0 × 10^−6 mol/L,−53.67 ± 0.74 mV
same,Membrane potential (mV),[4]; 1.0 × 10^−7 mol/L,−57.17 ± 0.53 mV
same,Membrane potential (mV),[4]; 1.0 × 10^−8 mol/L,−49.80 ± 0.65 mV
same,Membrane potential (mV),[4]; 1.0 × 10^−9 mol/L,−48.10 ± 0.48 mV
same,Membrane potential (mV),[4]; 5.0 × 10^−4 mol/L,−42.67 ± 1.46 mV
same,Membrane potential (mV),[4]; 5.0 × 10^−5 mol/L,−48.50 ± 1.28 mV
same,Membrane potential (mV),[4]; 5.0 × 10^−6 mol/L,−50.50 ± 0.88 mV
